Source: the supplement of paper PMC4723716
Where a name gives a salt, the structure may show the parent alone.

System: Plasmodium falciparum NF54 gametocytes
Conditions: 384, incubation time: 72 h
Protocol: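 Known antimalarials and MMV control compounds in dose response against each stage (I–V) […] The fitted EC50 is reported as IC50 in µM; '>' marks the top dose reached without a curve.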

[1] = gametocyte stage: Stage I Dose Response IC50 (µM), assay protocol: SaLSSA
[2] = gametocyte stage: Stage II Dose Response IC50 (µM), assay protocol: SaLSSA
[3] = gametocyte stage: Stage III Dose Response IC50 (µM), assay protocol: SaLSSA
[4] = gametocyte stage: Stage IV Dose Response IC50 (µM), assay protocol: SaLSSA
[5] = gametocyte stage: Stage V Dose Response IC50 (µM), assay protocol: SaLSSA
[6] = gametocyte stage: Stage I Dose Response IC50 (µM), assay protocol: TSSA
[7] = gametocyte stage: Stage II Dose Response IC50 (µM), assay protocol: TSSA
[8] = gametocyte stage: Stage III Dose Response IC50 (µM), assay protocol: TSSA
[9] = gametocyte stage: Stage IV Dose Response IC50 (µM), assay protocol: TSSA
[10] = gametocyte stage: Stage V Dose Response IC50 (µM), assay protocol: TSSA

Row | SMILES | IC50 of gametocyte viability [1] [µM] | IC50 of gametocyte viability [2] [µM] | IC50 of gametocyte viability [3] [µM] | IC50 of gametocyte viability [4] [µM] | IC50 of gametocyte viability [5] [µM] | IC50 of gametocyte viability [6] [µM] | IC50 of gametocyte viability [7] [µM] | IC50 of gametocyte viability [8] [µM] | IC50 of gametocyte viability [9] [µM] | IC50 of gametocyte viability [10] [µM]
1 | CC1(C)c2nc(-c3ccc(F)cc3)c(Nc3ccc(Cl)cc3)n2CCN1C(=O)CN [KAF(GNF)179] | 0.341 | 0.0641 | 0.0199 | 0.00915 | 0.00336 |  |  |  |  | 
2 | CCCCN(CCCC)CCC(O)c1cc2c(Cl)cc(Cl)cc2c2cc(C(F)(F)F)ccc12 (stereo not given) [Halofantrine] | 0.00161 | 0.000896 | 0.0233 | 1.51 | 0.0075 |  |  |  |  | 
3 | COc1ncnc(NS(=O)(=O)c2ccc(N)cc2)c1OC [Sulfadoxine] | > 12.5 | > 12.5 | > 12.5 | > 12.5 | > 12.5 |  |  |  |  | 
4 | C[C@]12CC[C@H](OS(=O)(=O)O)CC1=CC[C@@H]1[C@@H]2CC[C@]2(C)C(=O)CC[C@@H]12 [dehydroepiandrosterone sulphate] | > 12.5 | > 12.5 | > 12.5 | > 12.5 | > 12.5 |  |  |  |  | 
5 | COc1cc(Cc2cnc(N)nc2N)cc(OC)c1OC [Trimethoprim] | > 12.5 | > 12.5 | > 12.5 | > 12.5 | > 12.5 |  |  |  |  | 
6 | Nc1ccc(S(=O)(=O)Nc2ncccn2)cc1 [Sulfadiazine] | > 12.5 | > 12.5 | > 12.5 | > 12.5 | > 12.5 |  |  |  |  | 
7 | CCN(CC)CCCC(C)Nc1ccnc2cc(Cl)ccc12 (stereo not given) [Chloroquine] | 0.0956 | 0.0981 | > 6.25 | > 6.25 | > 6.25 | 0.084 | 0.0806 | > 6.25 | > 6.25 | > 6.25
8 | CCN(CC)CCCNc1ccnc2cc(Cl)ccc12 [AQ-13] | 0.0426 | 0.0335 | 0.484 | 6.47 | 6.05 |  |  |  |  | 
9 | C(CN1CCOCC1)Oc2ccc(cc2)[C@@H]3CC[C@@]4(CC3)OO[C@@]5(O4)[C@@H]6CC7C[C@@H](CC5C7)C6 [OZ 439 mesylate] | 0.0107 | 0.00536 | 0.00342 | 0.0019 | > 12.5 |  |  |  |  | 
10 | COc1cc(C)c2c(Oc3cccc(C(F)(F)F)c3)c(OC)cc(NC(C)CCCN)c2n1 (stereo not given) [Tafenoquine] |  |  |  |  |  | 5.3 | 7.55 | 7.03 | 6.87 | 0.919
11 | COc1cc(N[C@H](C)CCCN)c2nccc(C)c2c1Oc1ccc(Cl)c(Cl)c1 [NPC-1161B] |  |  |  |  |  | 5.21 | 6.63 | 4.57 | 6.24 | 5.22
12 | CN(C)[C@@H]1C(O)=C(C(N)=O)C(=O)[C@@]2(O)C(O)=C3C(=O)c4c(O)cccc4[C@@](C)(O)[C@H]3C[C@@H]12 [Tetracycline] | > 12.5 | > 12.5 | > 12.5 | > 12.5 | > 12.5 |  |  |  |  | 
13 | CCc1nc(N)nc(N)c1OCCCOc1ccccc1CCC(=O)O [P218.HCl] | > 12.5 | > 12.5 | > 12.5 | > 12.5 | > 12.5 |  |  |  |  | 
14 | C=C[C@H]1CN2CC[C@@H]1C[C@H]2[C@H](O)c1ccnc2ccc(OC)cc12 [Quinine sulfate dihydrate (coeff. 2)] | 0.44 | 0.496 | > 8.77 | > 12.5 | > 8.86 |  |  |  |  | 
15 | C=C[C@H]1CN2CC[C@H]1C[C@@H]2[C@@H](O)c1ccnc2ccc(OC)cc12 [Quinidine] |  |  |  |  |  | 0.18 | 0.275 | 2.83 | > 12.5 | > 12.5
16 | OC(c1cc(C(F)(F)F)nc2c(C(F)(F)F)cccc12)C1CCCCN1 (stereo not given) [Mefloquine (+ RS)] |  |  |  |  |  | 0.0512 | 0.0471 | 0.0585 | 1.64 | 6.34
17 | Cc1cc(NS(=O)(=O)c2ccc(N)cc2)no1 [Sulfamethoxazole] |  |  |  |  |  | > 12.5 | > 12.5 | > 12.5 | > 12.5 | > 12.5
18 | C[C@@H]1CC[C@H]2[C@@H](C)C(=O)O[C@@H]3O[C@@]4(C)CC[C@@H]1[C@]32OO4 [Artemisinin] |  |  |  |  |  | 0.027 | 0.0188 | 0.0218 | 0.0322 | > 12.5
19 | CCN(CC)Cc1cc(Nc2ccnc3cc(Cl)ccc23)ccc1O [Amodiaquine] | 0.0118 | 0.00579 | 0.0961 | 2.46 | 1.78 | 0.0134 | 0.0088 | 0.107 | 5.4 | > 9.39
20 | CC(=O)N(O)CCCCCNC(=O)CCC(=O)N(O)CCCCCNC(=O)CCC(=O)N(O)CCCCCN [Deferoxamine mesylate salt] | > 12.5 | > 12.5 | > 12.5 | > 12.5 | > 12.5 |  |  |  |  | 
21 | OC(c1cc(C(F)(F)F)nc2c(C(F)(F)F)cccc12)C1CCCCN1 (racemic) [Mefloquine (Racemic)] |  |  |  |  |  | 0.0569 | 0.117 | 0.127 | 2.08 | 5.77
22 | C[C@H]1[C@@H](O)O[C@@H]2O[C@@]3(C)CC[C@H]4[C@H](C)CC[C@@H]1[C@@]24OO3 [Artenimol (Dihydro artemisinin)] | 0.00579 | 0.0027 | 0.00674 | 0.0207 | > 12.5 |  |  |  |  | 
23 | CC(C)NC(=N)NC(=N)Nc1ccc(Cl)c(Cl)c1 [Chlorproguanil hydrochloride/1.11] | 9.35 | 7.79 | 7.87 | 5.21 | 4.8 | > 12.5 | > 12.5 | 8.37 | 7.57 | > 11
24 | COc1ccc2nc3cc(Cl)ccc3c(Nc3cc(CN4CCCC4)c(O)c(CN4CCCC4)c3)c2n1 [Pyronaridine phosphate] |  |  |  |  |  | 0.0101 | 0.0125 | 0.315 | 3.82 | 3.16
